The target in assay [1] is T1, human thyroid receptor beta ligand-binding domain (LBD) (Homo sapiens, UniProt P10828).
T1 construct: purchased Invitrogen
T1 sequence (P10828 217-461 limits assumed): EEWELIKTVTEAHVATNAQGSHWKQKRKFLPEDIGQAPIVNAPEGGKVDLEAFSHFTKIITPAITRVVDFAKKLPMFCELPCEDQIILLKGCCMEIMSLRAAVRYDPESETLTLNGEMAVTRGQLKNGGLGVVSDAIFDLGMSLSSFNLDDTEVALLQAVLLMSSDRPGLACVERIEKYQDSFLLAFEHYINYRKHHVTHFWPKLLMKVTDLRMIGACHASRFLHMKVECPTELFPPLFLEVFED
Kind of assay: TR-FRET thyroid receptor beta coactivator assay (THR biochemical assay, Assay 1). To be noted: for EC50: THR-beta, TR-FRET coactivator assay, read-out: Activity category Assay 1 (EC50, THR-beta agonist); for Emax: Table 5, Assay 1, THRβ, read-out: Activity category Assay 1 THRβ (Emax). In a few lines:
(§1)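 Agonist-driven coactivator recruitment measured by TR-FRET: terbium anti-GST antibody (2 nM) bound to GST-LBD of TRβ or TRα (1 nM final, stated for β), with fluorescein SRC2-2 peptide at 200 nM. Compounds at 1% DMSO. Read after 1 h, room temperature, protected from light.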
Background: TR-FRET usually uses a lanthanide donor and a delayed reading to cut background.

Assay [2] concerns the target T2, human thyroid receptor alpha ligand-binding domain (LBD) (Homo sapiens, UniProt P10827).
T2 construct: purchased Invitrogen
Kind of assay: TR-FRET thyroid receptor alpha coactivator assay (THR biochemical assay, Assay 1). To be noted: for EC50: Table 4, THR-alpha, read-out: Activity category Assay 1 (EC50, THR-alpha agonist activity); for Emax: Table 5, THRα, read-out: Activity category Assay 1 THRα (Emax). In a few lines: as §1

A further assay deals with T3, THR beta (Homo sapiens, UniProt P10828).
T3 construct: expressed in transfected cells; host or cells: HEK293T (ATCC CRL-3216)
T3 sequence (P10828 1-461): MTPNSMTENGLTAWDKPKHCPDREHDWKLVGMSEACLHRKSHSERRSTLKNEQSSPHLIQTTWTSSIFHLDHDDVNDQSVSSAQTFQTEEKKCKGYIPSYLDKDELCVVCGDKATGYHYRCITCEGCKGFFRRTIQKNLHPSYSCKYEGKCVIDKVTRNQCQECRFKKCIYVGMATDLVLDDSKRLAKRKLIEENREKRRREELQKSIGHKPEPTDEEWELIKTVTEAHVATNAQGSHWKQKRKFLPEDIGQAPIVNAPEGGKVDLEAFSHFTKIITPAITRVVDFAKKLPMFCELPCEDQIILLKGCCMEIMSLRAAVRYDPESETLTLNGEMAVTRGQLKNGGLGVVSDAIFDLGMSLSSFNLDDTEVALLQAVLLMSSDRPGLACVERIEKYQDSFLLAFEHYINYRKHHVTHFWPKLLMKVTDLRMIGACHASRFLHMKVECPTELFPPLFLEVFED
T3 sequence (P19793 1-462 partner): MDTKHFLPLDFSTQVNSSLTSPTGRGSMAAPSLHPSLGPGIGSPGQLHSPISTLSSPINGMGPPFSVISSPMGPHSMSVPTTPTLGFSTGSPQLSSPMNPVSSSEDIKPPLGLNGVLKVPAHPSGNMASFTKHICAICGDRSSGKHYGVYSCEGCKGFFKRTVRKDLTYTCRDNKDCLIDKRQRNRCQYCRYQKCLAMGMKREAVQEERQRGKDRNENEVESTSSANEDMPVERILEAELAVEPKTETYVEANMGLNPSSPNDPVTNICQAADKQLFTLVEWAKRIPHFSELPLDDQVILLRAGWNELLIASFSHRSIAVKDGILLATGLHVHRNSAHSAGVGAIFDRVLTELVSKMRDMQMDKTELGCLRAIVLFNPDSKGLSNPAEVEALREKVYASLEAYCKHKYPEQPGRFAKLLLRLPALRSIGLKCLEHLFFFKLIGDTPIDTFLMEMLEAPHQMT
Kind of assay: HEK293T THR beta/RXR luciferase reporter assay (Assay 2). The format is cell-based. To be noted: for Emax: HEK-293T, Table 5, Assay 2, THRβ, read-out: Activity category Assay 2 THRβ (Emax); for EC50: THR-beta, HEK293T reporter assay, read-out: Activity category Assay 2 (EC50, THR-beta agonist). On the procedure: (§2) HEK293T Reporter THRalpha/Beta/RXR Reporter Assay (Assay 2)
(§3) The purpose of this assay is to evaluate the effect of compounds on the thyroid hormone nuclear receptor pathway in HEK293T cells. To this end, HEK293T cells are transiently transfected with a luciferase reporter under the control of the thyroid response element (TRE), an RXR expression plasmid and either a THR alpha or THR beta expression plasmid. Transfected cells are stimulated with test compounds for 18-24 hours before activation of the thyroid hormone pathway is measured via a luciferase read-out.
(§4) Procedure. […] Ten five-fold dilutions of test compounds are prepared in DMSO and 30 nL are dispensed to the cells. […] Approximately 18-24 h after compound addition, 384 well plates are allowed to adjust to rt, 30 μL One-Glo (Promega catalog #E6120) is added to each well and luminescence is measured on a Perkin Elmer Enspire plate reader. Percent agonism is calculated using the following equation: 100× (sample-negative control)/(positive control-negative control).
On the technique in general: In a reporter assay the amount or activity of a reporter protein is the signal.

A further assay has as its target T4, THR alpha (Homo sapiens, UniProt P10827).
T4 construct: expressed in transfected cells; host or cells: HEK293T (ATCC CRL-3216)
T4 sequence (P10827 1-410 isoform P10827-2): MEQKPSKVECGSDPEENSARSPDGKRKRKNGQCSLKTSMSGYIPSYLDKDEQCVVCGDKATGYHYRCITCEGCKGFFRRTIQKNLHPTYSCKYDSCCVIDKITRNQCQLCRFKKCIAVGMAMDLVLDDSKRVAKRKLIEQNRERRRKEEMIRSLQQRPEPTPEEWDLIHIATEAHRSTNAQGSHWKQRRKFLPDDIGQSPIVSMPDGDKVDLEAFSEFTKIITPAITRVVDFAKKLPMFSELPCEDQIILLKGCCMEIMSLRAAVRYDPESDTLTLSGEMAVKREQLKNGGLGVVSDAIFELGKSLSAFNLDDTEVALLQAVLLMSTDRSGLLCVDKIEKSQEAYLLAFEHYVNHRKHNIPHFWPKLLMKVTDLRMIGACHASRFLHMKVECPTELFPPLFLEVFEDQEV
T4 sequence (P19793 1-462 partner): T3 sequence (P19793 1-462 partner)
Kind of assay: HEK293T THR alpha/RXR luciferase reporter assay (Assay 2). The format is cell-based. Conditions: Assay 2; for Emax: HEK-293T, Table 5, THRα, read-out: Activity category Assay 2 THRα (Emax); for EC50: Table 4, THR-alpha, read-out: Activity category Assay 2 (EC50, THR-alpha agonist activity). The method, then: as §2, §3, §4

In general, EC50 refers to the concentration giving half of the maximal effect. By Emax is commonly meant the greatest response seen or fitted, relative to the assay's reference. As to `CCCc1c[nH]c2ccc(Oc3c(Cl)cc(-n4nc(C#N)c(=O)[nH]c4=O)cc3Cl)cc12` [Compound 48, 2-[3,5-dichloro-4-[(3-propyl-1H-indol-5-yl)oxy]phenyl]-3,5-dioxo-4H-1,2,4-triazine-6-carbonitrile], the EC50 in assay [1] was less than 50 nM; in assay [2], less than 50 nM; at THR beta, 50 to 250 nM; on THR alpha, 250 to 1000 nM. Besides, the Emax is 50 to 75% in assay [1], 50 to 75% in assay [2], more than 75% at THR beta and more than 75% on THR alpha.
For `CC(C)Cc1c[nH]c2ccc(Oc3c(Cl)cc(-n4nc(C#N)c(=O)[nH]c4=O)cc3Cl)cc12` [Compound 49, 2-(3,5-dichloro-4-[[3-(2-methylpropyl)-1H-indol-5-yl]oxy]phenyl)-3,5-dioxo-4H-1,2,4-triazine-6-carbonitrile], the EC50 in assay [1] is less than 50 nM; in assay [2], less than 50 nM; at THR beta, 250 to 1000 nM; at THR alpha it was 250 to 1000 nM. Moreover, the Emax in assay [1] was less than 50%; in assay [2] it was less than 50%; at THR beta, more than 75%; at THR alpha it was less than 50%.
As to `N#Cc1nn(-c2cc(Cl)c(Oc3ccc4[nH]cc(CC5CC5)c4c3)c(Cl)c2)c(=O)[nH]c1=O` [Compound 50, 2-(3,5-dichloro-4-[[3-(cyclopropylmethyl)-1H-indol-5-yl]oxy]phenyl)-3,5-dioxo-4H-1,2,4-triazine-6-carbonitrile], the EC50 is less than 50 nM in assay [1], less than 50 nM in assay [2], 50 to 250 nM at THR beta and 250 to 1000 nM on THR alpha. Moreover, the Emax is 50 to 75% in assay [1], 50 to 75% in assay [2], more than 75% on THR beta and more than 75% on THR alpha.
As to `CC(C)c1c[nH]c2nnc(Oc3c(Cl)cc(-n4nc(N)c(=O)[nH]c4=O)cc3Cl)cc12` [Compound 53, 6-amino-2-[3,5-dichloro-4-([5-isopropyl-7H-pyrrolo[2,3-c]pyridazin-3-yl]oxy)phenyl]-4H-1,2,4-triazine-3,5-dione], the EC50 was less than 50 nM in assay [1], 250 to 1000 nM in assay [2], 250 to 1000 nM at THR beta and 1000 to 10000 nM at THR alpha. For the same compound, the Emax in assay [1] was 50 to 75%; in assay [2], less than 50%; on THR beta, more than 75%; at THR alpha, more than 75%.
As to `Cc1cc(-n2ncc(=O)[nH]c2=O)cc(C)c1Cc1cnc2[nH]cc(C(C)C)c2n1` [Compound 56, 2-(4-((7-isopropyl-5H-pyrrolo[2,3-b]pyrazin-2-yl)methyl)-3,5-dimethylphenyl)-1,2,4-triazine-3,5(2H,4H)-dione], the EC50 was less than 50 nM in assay [1], 250 to 1000 nM in assay [2], 50 to 250 nM at THR beta and 50 to 250 nM at THR alpha. Also, the Emax in assay [1] is less than 50%; in assay [2], less than 50%; at THR beta, more than 75%; at THR alpha, 50 to 75%.
For `Cc1cc(-n2nc(C#N)c(=O)[nH]c2=O)cc(C)c1Cc1ccc2[nH]nc(C(C)C)c2c1` [Compound 57, 2-(4-((3-Isopropyl-1H-indazol-5-yl)methyl)-3,5-dimethylphenyl)-3,5-dioxo-2,3,4,5-tetrahydro-1,2,4-triazine-6-carbonitrile], the EC50 in assay [1] is less than 50 nM; in assay [2] it was less than 50 nM; at THR beta it was 50 to 250 nM; on THR alpha, 250 to 1000 nM. In addition, the Emax is less than 50% in assay [1], less than 50% in assay [2], more than 75% at THR beta and more than 75% on THR alpha.
Take `Nc1nn(-c2cc(Cl)c(Oc3cc(C4CCCCC4)c(=O)[nH]n3)c(Cl)c2)c(=O)[nH]c1=O` [Compound 58]: the EC50 in assay [1] was less than 50 nM; in assay [2], 250 to 1000 nM; on THR beta, 50 to 250 nM; at THR alpha it was 250 to 1000 nM. For the same compound, the Emax in assay [1] is less than 50%; in assay [2], less than 50%; at THR beta, more than 75%; at THR alpha, 50 to 75%.
For `Nc1nn(-c2cc(Cl)c(Oc3cc(C4CCOCC4)c(=O)[nH]n3)c(Cl)c2)c(=O)[nH]c1=O` [Compound 59, 6-amino-2-(3,5-dichloro-4-[[5-(oxan-4-yl)-6-oxo-1H-pyridazin-3-yl]oxy]phenyl)-4H-1,2,4-triazine-3,5-dione], the EC50 in assay [1] is 1000 to 25000 nM; in assay [2] it was 1000 to 25000 nM; on THR beta, 1000 to 10000 nM; on THR alpha, more than 10000 nM. Moreover, the Emax is less than 50% in assay [1], less than 50% in assay [2], more than 75% at THR beta and 50 to 75% at THR alpha.
With `CC(C)(O)c1cc(Oc2c(Cl)cc(-n3nc(N)c(=O)[nH]c3=O)cc2Cl)n[nH]c1=O` [Compound 60, 6-amino-2-(3,5-dichloro-4-[[5-(2-hydroxypropan-2-yl)-6-oxo-1H-pyridazin-3-yl]oxy]phenyl)-4H-1,2,4-triazine-3,5-dione], the EC50 fell in the range of 250 to 1000 nM in assay [1], 1000 to 25000 nM in assay [2], 1000 to 10000 nM on THR beta and 1000 to 10000 nM on THR alpha. Further, the Emax was less than 50% in assay [1], less than 50% in assay [2], more than 75% on THR beta and more than 75% on THR alpha.
Regarding `C=C(C)c1cc(Oc2c(Cl)cc(-n3nc(N)c(=O)[nH]c3=O)cc2Cl)n[nH]c1=O` [Compound 60-A, 6-amino-2-(3,5-dichloro-4-[[6-oxo-5-(prop-1-en-2-yl)-1H-pyridazin-3-yl]oxy]phenyl)-4H-1,2,4-triazine-3,5-dione], the EC50 in assay [1] was less than 50 nM; in assay [2], 50 to 250 nM; at THR beta, 250 to 1000 nM; at THR alpha, 250 to 1000 nM. The Emax is less than 50% in assay [1], less than 50% in assay [2], 50 to 75% on THR beta and less than 50% on THR alpha.

These data come from US12180192B2, “Modulators of THR-β and methods of use thereof” (ALIGOS THERAPEUTICS, INC., priority 2019, dated 2024).
